Measurements published in patent publication US9133168B2, “Pyrimidine derivatives, preparation thereof, and pharmaceutical use thereof as akt(pkb) phosphorylation inhibitors” (SANOFI, priority 2010, dated 2015).

system: AKT protein phosphorylated on serine 473 (P-AKT-S473) in PC3 human prostate carcinoma cells; assay: pAKT expression in PC3 human prostate carcinoma cells, MSD Multi-spot Biomarker detection (Test A); type: cell-based; settings: Homo sapiens, PC-3, PC3 cells, 1 to 2 h incubation, P-AKT-S473, absolute IC50, mean of two independent experiments
Method: The inhibitory activity of the molecules on AKT phosphorylation is measured using the MSD Multi-spot Biomarker detection technique from Meso Scale Discovery also described below. […] The primary antibody specific for […]) is coated on to an electrode in each well of the 96-well plates of the MSD kit: after the addition of a protein lysate to each well, the signal is visualized by adding a secondary detection antibody labeled with an electrochemiluminescent compound. The procedure followed is the one described in the kit. […] On day 2, the cells are incubated in the presence or absence of the test products for 1 to 2 h at 37° C. in the presence of 5% CO2. The molecules, diluted in dimethyl sulfoxide (DMSO Sigma #D2650), are added from a 20-times concentrated stock solution, the final percentage of DMSO being 0.1%. The molecules are tested either at a single concentration of less than or equal to 10 μM, or at increasing concentrations in a range that can extend from less than 1 nM to 10 μM. After this incubation, the cells are lysed for the preparation of the proteins. […] At this stage, the plates containing the lysates can be frozen at -20° C. or at -80° C. The wells of the 96 well plates of the MSD kit are saturated for 1 h at ambient temperature with the blocking solution of the MSD kit. Four washes are carried out with 150 μl of Tris Wash Buffer of the MSD kit. The lysates previously prepared are transferred into the 96-well multi-spot plates of the MSD kit and incubated for 1 h at ambient temperature, with shaking. Four washes are carried out with 150 μl of Tris Wash Buffer of the MSD kit. 25 μl of the MSD sulfo-tag detection antibody solution are added to the wells and incubated for 1 h at ambient temperature, with shaking. Four washes are carried out with 150 μl of Tris Wash Buffer of the MSD kit. 150 μl of Read Buffer of the MSD kit are added to the wells and the plates are read immediately on the S12400 instrument from Meso Scale Discovery. The instrument measures a signal for each well. Wells without cells and containing the lysis buffer serve to determine the background noise that will be subtracted from all the measurements (min). The wells containing cells in the absence of product and in the presence of 0.1% DMSO are considered to be the 100% signal (max). The percentage inhibition is calculated for each concentration of product tested, according to the following formula: (1-((test-min)/(max-min)))×100. […] Two independent experiments make it possible to calculate the mean of the IC50 values.

Compared with C[C@@H]1Cc2ccccc2N1C(=O)Cc1nc(N2CCOCC2)c(Cl)c(=O)[nH]1 [Example 36a, 5-chloro-2-[2-((R)-2-methyl-2,3-dihydroindol-1-yl)-2-oxoethyl]-6-morpholin-4-yl-3H-pyrimidin-4-one], C[C@H]1Cc2ccccc2N1C(=O)Cc1nc(N2CCOCC2)c(Cl)c(=O)[nH]1 [Example 35a, 5-chloro-2-[2-((S)-2-methyl-2,3-dihydroindol-1-yl)-2-oxoethyl]-6-morpholin-4-yl-3H-pyrimidin-4-one] is 2.5-fold higher in IC50: 55 nM for the first, 140 nM for the second.

Going from CC1(C)CN(C(=O)Cc2nc(N3CCOCC3)cc(=O)[nH]2)c2cccc(F)c21 [Example 8c, 2-[2-(4-fluoro-3,3-dimethyl-2,3-dihydro-1H-indol-1-yl)-2-oxoethyl]-6-(morpholin-4-yl)pyrimidin-4(3H)-one] to CC1(C)CN(C(=O)Cc2nc(N3CCOCC3)cc(=O)[nH]2)c2cccc(Cl)c21 [Example 5c, 2-[2-(4-chloro-3,3-dimethyl-2,3-dihydro-1H-indol-1-yl)-2-oxoethyl]-6-(morpholin-4-yl)pyrimidin-4(3H)-one], the IC50 falls from 52 nM to 14 nM (3.7-fold). The second is the more potent here.

Compared with O=C(Cc1nc(N2CCOCC2)cc(=O)[nH]1)N1CC2(CCOCC2)c2ccccc21 [Example 21d, 6-(morpholin-4-yl)-2-[2-oxo-2-(2′,3′,5′,6′-tetrahydrospiro[indole-3,4′-pyran]-1(2H)-yl)ethyl]pyrimidin-4(3H)-one], CC(C)C1Cc2ccccc2N1C(=O)Cc1nc(N2CCOCC2)cc(=O)[nH]1 (single isomer, unassigned; (-)) [Example 39c, (−)-2-[2-(2-isopropyl-2,3-dihydroindol-1-yl)-2-oxoethyl]-6-morpholin-4-yl-3H-pyrimidin-4-one] is 39-fold lower in IC50: 155 nM for the first, 4 nM for the second.

Going from O=C(Cc1nc(N2CCOCC2)cc(=O)[nH]1)N1CCc2c1cccc2C(F)(F)F [Example 5d, 6-(morpholin-4-yl)-2-{2-oxo-2-[4-(trifluoromethyl)-2,3-dihydro-1H-indol-1-yl]ethyl}pyrimidin-4(3H)-one] to O=C(Cc1nc(N2CCOC(CO)C2)cc(=O)[nH]1)N1CCc2c(F)cccc21 (racemic) [Example 27b, (±)-2-[2-(4-fluoro-2,3-dihydroindol-1-yl)-2-oxoethyl]-6-(2-hydroxymethylmorpholin-4-yl)-3H-pyrimidin-4-one], the IC50 rises from 9 nM to 1330 nM (150-fold). The first is the more potent here.

First: CC1Cc2c(Br)cccc2N1C(=O)Cc1nc(N2CCOCC2)c(F)c(=O)n1C (stereo not drawn) [Example 30a, 5-fluoro-2-[2-((+)-4-bromo-2-methyl-2,3-dihydroindol-1-yl)-2-oxoethyl]-3-methyl-6-morpholin-4-yl-3H-pyrimidin-4-one]
Second: Cc1cc(-c2cc(=O)[nH]c(CC(=O)N3CCc4c(F)cccc43)n2)ccn1 [Example 23b, 2-[2-(4-fluoro-2,3-dihydroindol-1-yl)-2-oxoethyl]-6-(2-methylpyridin-4-yl)-3H-pyrimidin-4-one]
The IC50 of the first is 15-fold lower: 16 nM for the first, 244 nM for the second.

same assay, conditions: PC3 cells, 1 to 2 h incubation, P-AKT-S473, absolute IC50, mean of two independent experiments

First: CC1Cc2c(ccc(F)c2Cl)N1C(=O)Cc1nc(N2CCOCC2)cc(=O)[nH]1 (single isomer, unassigned; (-)) [Example 38c, (−)-2-{2-[4-chloro-5-fluoro-2-methyl-2,3-dihydro-1H-indol-1-yl]-2-oxoethyl}-6-(morpholin-4-yl)pyrimidin-4(3H)-one]
Second: CC1Cc2c(F)cccc2N1C(=O)Cc1nc(N2CCOCC2)cc(=O)[nH]1 (single isomer, unassigned; (-)) [Example 27c, (−)-2-{2-[4-fluoro-2-methyl-2,3-dihydro-1H-indol-1-yl]-2-oxoethyl}-6-(morpholin-4-yl)pyrimidin-4(3H)-one]
The IC50 of the first is 4-fold lower: 1 nM for the first, 4 nM for the second. The first is the more potent here.

Compared with CC1Cc2c(ccc(F)c2F)N1C(=O)Cc1nc(N2CCOCC2)c(F)c(=O)n1C (stereo not drawn) [Example 25a, 5-fluoro-2-[2-((+)-4,5-difluoro-2-methyl-2,3-dihydroindol-1-yl)-2-oxoethyl]-3-methyl-6-morpholin-4-yl-3H-pyrimidin-4-one], CC1Cc2c(Cl)cccc2N1C(=O)Cc1nc(N2CCOCC2)c(F)c(=O)n1C (stereo not drawn) [Example 28a, 5-fluoro-2-[2-((+)-4-chloro-2-methyl-2,3-dihydroindol-1-yl)-2-oxoethyl]-3-methyl-6-morpholin-4-yl-3H-pyrimidin-4-one] is 4.9-fold higher in IC50: 98 nM for the first, 476 nM for the second.

Compared with CC1Cc2c(Br)cccc2N1C(=O)Cc1nc(N2CCOCC2)c(F)c(=O)[nH]1 (single isomer, unassigned; (-)) [Example 17a, (−)-2-{2-[4-bromo-2-methyl-2,3-dihydro-1H-indol-1-yl]-2-oxoethyl}-5-fluoro-6-(morpholin-4-yl)pyrimidin-4(3H)-one], CC1Cc2c(F)cccc2N1C(=O)Cc1nc(N2CCOCC2)c(F)c(=O)[nH]1 (stereo not drawn) [Example 11a, 5-fluoro-2-[2-((−)-2-methyl-4-fluoro-2,3-dihydroindol-1-yl)-2-oxoethyl]-6-morpholin-4-yl-3H-pyrimidin-4-one] is 1.9-fold lower in IC50: 45 nM for the first, 24 nM for the second. The second is the more potent here.

Going from O=C(Cc1nc(N2CCOC(CF)C2)cc(=O)[nH]1)Nc1ccc(F)cc1 (stereo not drawn) [Example 3b, 2-[4-(2-fluoromethylmorpholin-4-yl)-6-oxo-1,6-dihydropyrimidin-2-yl]-N-(4-fluorophenyl)acetamide] to CC1CN(c2cc(=O)[nH]c(CC(=O)Nc3ccc(F)cc3)n2)CCO1 (single isomer, unassigned; (+)) [Example 2b, (+)-N-(4-fluorophenyl)-2-[4-(2-methylmorpholin-4-yl)-6-oxo-1,6-dihydropyrimidin-2-yl]acetamide], the IC50 falls from 271 nM to 6 nM (45-fold). The second is the more potent here.

Compared with CCC1Cc2ccccc2N1C(=O)Cc1nc(N2CCOCC2)cc(=O)[nH]1 (single isomer, unassigned; (+)) [Example 42c, (+)-2-[2-(2-ethyl-2,3-dihydroindol-1-yl)-2-oxoethyl]-6-morpholin-4-yl-3H-pyrimidin-4-one], CC1Cc2cc(F)ccc2N1C(=O)Cc1nc(N2CCOCC2)cc(=O)[nH]1 (single isomer, unassigned; (+)) [Example 13c, (+)-2-{2-[5-fluoro-2-methyl-2,3-dihydro-1H-indol-1-yl]-2-oxoethyl}-6-(morpholin-4-yl)pyrimidin-4(3H)-one] is 76-fold lower in IC50: 380 nM for the first, 5 nM for the second. The second is the more potent here.

Going from CC1Cc2c(cccc2C(F)(F)F)N1C(=O)Cc1nc(N2CCOCC2)cc(=O)[nH]1 (single isomer, unassigned; (-)) [Example 37d, (−)-2-{2-[2-methyl-4-(trifluoromethyl)-2,3-dihydro-1H-indol-1-yl]-2-oxoethyl}-6-(morpholin-4-yl)pyrimidin-4(3H)-one] to CC1Cc2c(Cl)cccc2N1C(=O)Cc1nc(N2CCOCC2)cc(=O)n1C (single isomer, unassigned; (-)) [Example 34c, (−)-2-{2-[4-chloro-2-methyl-2,3-dihydro-1H-indol-1-yl]-2-oxoethyl}-3-methyl-6-(morpholin-4-yl)pyrimidin-4(3H)-one], the IC50 rises from 2 nM to 242 nM (120-fold).

CC1CN(c2cc(=O)[nH]c(CC(=O)N3CCc4c(F)cccc43)n2)CCO1 (single isomer, unassigned; (+)) [Example 10b, (+)-2-[2-(4-fluoro-2,3-dihydroindol-1-yl)-2-oxoethyl]-6-(2-methylmorpholin-4-yl)-3H-pyrimidin-4-one] gave an IC50 of 8 nM.

same assay, conditions: PC3 cells, 1 to 2 h incubation, P-AKT-S473, absolute IC50, mean of two independent experiments; listed as 27

O=C(Cc1nc(N2CCOCC2)cc(=O)[nH]1)N1c2ccccc2CC1c1ccc(F)cc1 (single isomer, unassigned; (+)) [Example 27d, (+)-2-{2-[2-(4-fluorophenyl)-2,3-dihydro-1H-indol-1-yl]-2-oxoethyl}-6-(morpholin-4-yl)pyrimidin-4(3H)-one] gave an IC50 of 435 nM.
